Like-named read-outs stand apart in the source and are kept apart here.
Legend:
erythrocyte AChE [1] = biological target: T1, erythrocyte AChE (Homo sapiens, UniProt P22303); experiment: Exposure Activity Ratio (EAR) and Dietary Comparator Ratio (DCR) calculation; design: from tissue; host or cells: human whole peripheral blood (erythrocytes), K2EDTA anticoagulant; conditions: human
Method: The DCR value for an exposure scenario was calculated as the ratio of EARtest and EARcomparator (eq 1). The EARtest is scenario-specific and was defined with the IC50 of the tested organophosphate oxon for in vitro erythrocyte AChE inhibition and the PBK model-simulated CBmaxoxon at the defined exposure level (eq 2).
The DCR-based predictions were evaluated by comparing the obtained DCR results with actual knowledge of the adverse health effects reported for the respective exposure scenarios. Adverse effects cannot be ruled out for human exposure scenarios with a DCR result greater than 1, while exposure scenarios with a DCR result less than or equal to 1 are considered to raise no safety concern.[18]−[20] Once validated as an adequate predicting tool, the DCR approach was applied for evaluating the safety of exposure scenarios, for which no information on the resulting toxic outcomes was reported at the defined dose levels for humans.

erythrocyte AChE [2] = biological target: T1, erythrocyte AChE; conditions: cited from earlier work

T1 sequence (P22303 32-617 isoform P22303-2 limits assumed): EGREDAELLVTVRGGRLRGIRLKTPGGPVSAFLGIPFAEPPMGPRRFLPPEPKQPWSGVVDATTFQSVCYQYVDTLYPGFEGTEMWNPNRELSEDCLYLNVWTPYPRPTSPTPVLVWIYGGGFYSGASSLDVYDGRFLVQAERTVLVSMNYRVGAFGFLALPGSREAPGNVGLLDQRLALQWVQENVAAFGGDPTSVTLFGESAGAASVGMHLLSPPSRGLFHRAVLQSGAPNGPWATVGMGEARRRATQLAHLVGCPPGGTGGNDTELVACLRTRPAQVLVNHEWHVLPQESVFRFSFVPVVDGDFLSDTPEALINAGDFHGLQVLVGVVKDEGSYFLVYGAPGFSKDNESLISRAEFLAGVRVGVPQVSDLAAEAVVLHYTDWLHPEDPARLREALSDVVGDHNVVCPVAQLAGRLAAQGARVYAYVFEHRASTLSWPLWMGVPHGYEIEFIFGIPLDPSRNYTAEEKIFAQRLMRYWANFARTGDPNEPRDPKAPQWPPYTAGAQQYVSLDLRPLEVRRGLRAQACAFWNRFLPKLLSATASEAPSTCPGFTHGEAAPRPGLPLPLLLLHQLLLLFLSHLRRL

COP(=S)(OC)Oc1ccc([N+](=O)[O-])c(C)c1 [fenitrothion]
calculated DCR value (erythrocyte AChE [1]; single oral 0.042 mg/kg BW): 0.17 | calculated EARtest value (erythrocyte AChE [1]; single oral 0.042 mg/kg BW): 6.8 × 10^–3 | calculated DCR value (erythrocyte AChE [1]; single oral 0.06 mg/kg BW): 0.25 | calculated EARtest value (erythrocyte AChE [1]; single oral 0.06 mg/kg BW): 9.7 × 10^–3 | calculated DCR value (erythrocyte AChE [1]; single oral 0.083 mg/kg BW): 0.34 | calculated EARtest value (erythrocyte AChE [1]; single oral 0.083 mg/kg BW): 0.013 | calculated DCR value (erythrocyte AChE [1]; single oral 0.09 mg/kg BW): 0.37 | calculated EARtest value (erythrocyte AChE [1]; single oral 0.09 mg/kg BW): 0.015 | calculated DCR value (erythrocyte AChE [1]; single oral 0.17 mg/kg BW): 0.70 | calculated EARtest value (erythrocyte AChE [1]; single oral 0.17 mg/kg BW): 0.028 | calculated DCR value (erythrocyte AChE [1]; single oral 0.18 mg/kg BW): 0.74 | calculated EARtest value (erythrocyte AChE [1]; single oral 0.18 mg/kg BW): 0.029 | calculated DCR value (erythrocyte AChE [1]; single oral 0.25 mg/kg BW): 1.0 | calculated EARtest value (erythrocyte AChE [1]; single oral 0.25 mg/kg BW): 0.041 | calculated DCR value (erythrocyte AChE [1]; single oral 0.33 mg/kg BW): 1.4 | calculated EARtest value (erythrocyte AChE [1]; single oral 0.33 mg/kg BW): 0.054 | calculated DCR value (erythrocyte AChE [1]; single oral 0.36 mg/kg BW): 1.5 | calculated EARtest value (erythrocyte AChE [1]; single oral 0.36 mg/kg BW): 0.059 | calculated DCR value (erythrocyte AChE [1]; single oral 36 mg/kg BW): 174 | calculated EARtest value (erythrocyte AChE [1]; single oral 36 mg/kg BW): 6.89 | calculated DCR value (erythrocyte AChE [1]; single oral 71 mg/kg BW): 346 | calculated EARtest value (erythrocyte AChE [1]; single oral 71 mg/kg BW): 13.66 | calculated DCR value (erythrocyte AChE [1]; single oral 143 mg/kg BW): 610 | calculated EARtest value (erythrocyte AChE [1]; single oral 143 mg/kg BW): 24.10 | calculated DCR value (erythrocyte AChE [1]; single oral 214 mg/kg BW): 811 | calculated EARtest value (erythrocyte AChE [1]; single oral 214 mg/kg BW): 32.03 | calculated DCR value (erythrocyte AChE [1]; single oral 357 mg/kg BW): 1189 | calculated EARtest value (erythrocyte AChE [1]; single oral 357 mg/kg BW): 46.93 | calculated DCR value (erythrocyte AChE [1]; single oral 429 mg/kg BW): 1364 | calculated EARtest value (erythrocyte AChE [1]; single oral 429 mg/kg BW): 53.86 | calculated DCR value (erythrocyte AChE [1]; single oral 500 mg/kg BW): 1526 | calculated EARtest value (erythrocyte AChE [1]; single oral 500 mg/kg BW): 60.24 | calculated DCR value (erythrocyte AChE [1]; single oral 536 mg/kg BW): 1604 | calculated EARtest value (erythrocyte AChE [1]; single oral 536 mg/kg BW): 63.31 | calculated DCR value (erythrocyte AChE [1]; single oral 571 mg/kg BW): 1677 | calculated EARtest value (erythrocyte AChE [1]; single oral 571 mg/kg BW): 66.18 | calculated DCR value (erythrocyte AChE [1]; single oral 1714 mg/kg BW): 3037 | calculated EARtest value (erythrocyte AChE [1]; single oral 1714 mg/kg BW): 119.90 | calculated DCR value (erythrocyte AChE [1]; single oral 1786 mg/kg BW): 3078 | calculated EARtest value (erythrocyte AChE [1]; single oral 1786 mg/kg BW): 121.49 | Reported erythrocyte AChE activity/inhibition (erythrocyte AChE [2]; 0.042 mg/kg BW single oral, 3 volunteers, ref Nosáľ and Hladká. 1968): No significant | Reported concomitant effects (signs and symptoms) (erythrocyte AChE [2]; 0.06 mg/kg BW single oral, 3 male volunteers, ref Meaklim et al. 2003): No significant symptoms | Reported erythrocyte AChE activity/inhibition (erythrocyte AChE [2]; 0.083 mg/kg BW single oral, 9 volunteers, ref Nosáľ and Hladká. 1968): No significant | Reported erythrocyte AChE activity/inhibition (erythrocyte AChE [2]; 0.09 mg/kg BW, first dose of repeated exposure study, 8 male and 4 female volunteers, ref Meaklim et al. 2003): No significant erythrocyte AChE | Reported erythrocyte AChE activity/inhibition (erythrocyte AChE [2]; 0.17 mg/kg BW single oral, 5 volunteers, ref Nosáľ and Hladká. 1968): No significant erythrocyte AChE | Reported concomitant effects (signs and symptoms) (erythrocyte AChE [2]; 0.18 mg/kg BW single oral, 3 male volunteers, ref Meaklim et al. 2003): No significant symptoms | Reported erythrocyte AChE activity/inhibition (erythrocyte AChE [2]; 0.18 mg/kg BW, first dose of repeated exposure study, 8 male and 4 female volunteers, ref Meaklim et al. 2003): No significant erythrocyte AChE | Reported erythrocyte AChE activity/inhibition (erythrocyte AChE [2]; 0.25 mg/kg BW single oral, 2 volunteers, ref Nosáľ and Hladká. 1968): No significant erythrocyte AChE | Reported erythrocyte AChE activity/inhibition (erythrocyte AChE [2]; 0.33 mg/kg BW single oral, 5 volunteers, ref Nosáľ and Hladká. 1968): No significant erythrocyte AChE | Reported concomitant effects (signs and symptoms) (erythrocyte AChE [2]; 0.36 mg/kg BW single oral, 3 male volunteers, ref Meaklim et al. 2003): No symptoms or adverse effects | Reported concomitant effects (signs and symptoms) (erythrocyte AChE [2]; 36 mg/kg BW (2.5 g) acute oral, person, ref Kojima et al. 1989): Toxic symptoms occurred | Reported concomitant effects (signs and symptoms) (erythrocyte AChE [2]; 71 mg/kg BW (5 g) acute oral, person, ref Yoshida and Kuroki. 2010 (original data of Koyama et al. 2006)): Toxic symptoms occurred | Reported concomitant effects (signs and symptoms) (erythrocyte AChE [2]; 143 mg/kg BW (10 g) acute oral, person, ref Yoshida and Kuroki. 2010 (original data of Koyama et al. 2006)): Toxic symptoms occurred | Reported concomitant effects (signs and symptoms) (erythrocyte AChE [2]; 214 mg/kg BW (15 g) acute oral, person five, ref Yoshida and Kuroki. 2010 (original data of Koyama et al. 2006)): Toxic symptoms occurred | Reported concomitant effects (signs and symptoms) (erythrocyte AChE [2]; 214 mg/kg BW (15 g) acute oral, person three, ref Yoshida and Kuroki. 2010 (original data of Koyama et al. 2006)): Toxic symptoms occurred | Reported concomitant effects (signs and symptoms) (erythrocyte AChE [2]; 286 mg/kg BW (20 g) acute oral, person, ref Sakamoto et al. 1984): Toxic symptoms occurred | Reported concomitant effects (signs and symptoms) (erythrocyte AChE [2]; 357 mg/kg BW (25 g) acute oral, person eleven, ref Yoshida and Kuroki. 2010 (original data of Koyama et al. 2006)): Toxic symptoms occurred

Reference: article PMC11966747, “Next Generation Risk Assessment of Acute Neurotoxicity from Organophosphate Exposures Using the In Vitro–In Silico Derived Dietary Comparator Ratio” (Environmental Science & Technology, 2025)
